Assay results as given in patent publication US6641797B2, “Perfluoroalkyl-containing complexes with sugar radicals, process for their production and their use” (Schering Aktiengesellschaft, priority 2000, dated 2003).

How the values were obtained:
Assay type in all cases: in vivo
[1] = system: rats with acute induced myocardial infarction; assay: Infarction visualization (MRT) after intravenous administration in rats with acute induced myocardial infarction; details: 100 μmol of Gd/kg i.v.; 24 hours; T1-weighted spin-echo, 1.5 T; confirmed by NBT staining
Protocol: Infarction Visualization (MRT) After Intravenous Administration of the Contrast Medium According to the Invention of Example 1 in Rats
MR images were prepared of the heart (in vivo and post mortem) 24 hours after intravenous administration of 100 μmol of Gd/kg of body weight of the title compound of Example 1 in rats with acute induced myocardial infarction. […] The successful indication of an acute myocardial infarction was confirmed using NBT staining.

[2] = Organ distribution (including tumor and lymph node concentration) after intravenous administration in prostate-cancer-carrying rats; details: 225 μmol total Gd/kg i.v.
From the text: Organ Distribution (Including Tumor and Lymph Node Concentration) After Intravenous Administration of the Contrast Medium According to the Invention of Example 1 in Prostate-cancer-carrying Rats
After intravenous administration of 225 μmol of total gadolinium/kg of body weight of the title compound of Example 1 in rats (Cop-inbreeding Dunning R3327 MAT-Lu prostate cancer i.m.-implanted 12 days earlier), the metal content in various organs, in tumors and in lymph nodes (pooled as mesenteral and peripheral lymph nodes) was determined 10 minutes, 1 and 24 hours after administration (MW±SD, n=3).

[3] = system: VX2-tumor-carrying rabbits; assay: Lymph node visualization (MRT) after intravenous administration in VX2-tumor-carrying rabbits; details: 200 μmol of Gd/kg i.v.
From the text: Lymph Node Visualization (MRT) After Intravenous Administration of the Contrast Medium According to the Invention of Example 1 in VX2-tumor-carrying Rabbits

[4] = Intestine (emptied), 10 min p.i.
[5] = Muscle (only tissue sample from right lower leg muscle), 10 min p.i.
[6] = Muscle (only tissue sample from right lower leg muscle), 1 h p.i.
[7] = Muscle (only tissue sample from right lower leg muscle), 24 h p.i.
[8] = Remainder of body (also contains the remainder of the blood), 24 h p.i.
[9] = mes. LK (pooled mesenteral lymph nodes), 10 min p.i.
[10] = mes. LK (pooled mesenteral lymph nodes), 1 h p.i.
[11] = mes. LK (pooled mesenteral lymph nodes), 24 h p.i.
[12] = periph. LK (pooled peripheral lymph nodes), 10 min p.i.
[13] = periph. LK (pooled peripheral lymph nodes), 1 h p.i.
[14] = periph. LK (pooled peripheral lymph nodes), 24 h p.i.

## CC(C(=O)NCC(=O)NCCCC[C@H](NC(=O)CO[C@H]1O[C@H](CO)[C@@H](O)[C@H](O)[C@@H]1O)C(=O)N1CCN(S(=O)(=O)C(F)(F)C(F)(F)C(F)(F)C(F)(F)C(F)(F)C(F)(F)C(F)(F)C(F)(F)F)CC1)N1CCN(CC(=O)[O-])CCN(CC(=O)[O-])CCN(CC(=O)[O-])CC1.[Gd+3] (some centres unmarked) [Example 1]
[1]
  MR signal in the infarction area: strong signal rise
[2]; Balance, 24 h p.i.
  % Dose per Total Tissue, Balance: 94.1 ± 6.41 % Dose
[2]; Blood (58 ml of blood/kg of body weight), 10 min p.i.
  % Dose per Total Tissue: 42.95 ± 2.59 % Dose
[2]; Blood (58 ml of blood/kg of body weight), 1 h p.i.
  % Dose per Total Tissue: 21.47 ± 1.78 % Dose
[2]; Blood (58 ml of blood/kg of body weight), 24 h p.i.
  % Dose per Total Tissue: 1.78 ± 0.03 % Dose
[2]; Blood, 10 min p.i.
  Gd-Concentration: 1665 ± 110 µmol/L
[2]; Blood, 1 h p.i.
  Gd-Concentration: 825 ± 67 µmol/L
[2]; Blood, 24 h p.i.
  Gd-Concentration: 214 ± 9 µmol/L
[2]; Brain, 10 min p.i.
  % Dose per Total Tissue: 0.15 ± 0.03 % Dose
  Gd-Concentration: 47 ± 13 µmol/L
[2]; Brain, 1 h p.i.
  % Dose per Total Tissue: 0.08 ± 0.02 % Dose
  Gd-Concentration: 26 ± 5 µmol/L
[2]; Brain, 24 h p.i.
  % Dose per Total Tissue: 0.04 ± 0.00 % Dose
  Gd-Concentration: 14 ± 2 µmol/L
[2]; Feces 0-24 h
  % Dose per Total Tissue: 21.85 ± 1.46 % Dose
  Gd-Concentration: 3128 ± 204 µmol/L
[2]; Femur, 10 min p.i.
  % Dose per Total Tissue: 0.65 ± 0.01 % Dose
  Gd-Concentration: 184 ± 4 µmol/L
[2]; Femur, 1 h p.i.
  % Dose per Total Tissue: 0.46 ± 0.03 % Dose
  Gd-Concentration: 127 ± 9 µmol/L
[2]; Femur, 24 h p.i.
  % Dose per Total Tissue: 0.31 ± 0.03 % Dose
  Gd-Concentration: 87 ± 6 µmol/L
[2]; Heart, 10 min p.i.
  % Dose per Total Tissue: 0.46 ± 0.01 % Dose
  Gd-Concentration: 438 ± 29 µmol/L
[2]; Heart, 1 h p.i.
  % Dose per Total Tissue: 0.31 ± 0.03 % Dose
  Gd-Concentration: 289 ± 24 µmol/L
[2]; Heart, 24 h p.i.
  % Dose per Total Tissue: 0.14 ± 0.02 % Dose
  Gd-Concentration: 131 ± 9 µmol/L
[2]; [4]
  % Dose per Total Tissue: 2.91 ± 0.18 % Dose
  Gd-Concentration: 342 ± 16 µmol/L
[2]; Intestine (emptied), 1 h p.i.
  % Dose per Total Tissue: 3.41 ± 1.02 % Dose
  Gd-Concentration: 409 ± 67 µmol/L
[2]; Intestine (emptied), 24 h p.i.
  % Dose per Total Tissue: 2.14 ± 0.14 % Dose
  Gd-Concentration: 243 ± 22 µmol/L
[2]; Kidney, 10 min p.i.
  % Dose per Total Tissue: 5.02 ± 1.29 % Dose
  Gd-Concentration: 2081 ± 537 µmol/L
[2]; Kidney, 1 h p.i.
  % Dose per Total Tissue: 2.15 ± 0.23 % Dose
  Gd-Concentration: 883 ± 94 µmol/L
[2]; Kidney, 24 h p.i.
  % Dose per Total Tissue: 2.97 ± 0.21 % Dose
  Gd-Concentration: 1178 ± 139 µmol/L
[2]; Liver, 10 min p.i.
  % Dose per Total Tissue: 5.46 ± 0.16 % Dose
  Gd-Concentration: 387 ± 26 µmol/L
[2]; Liver, 1 h p.i.
  % Dose per Total Tissue: 5.81 ± 0.16 % Dose
  Gd-Concentration: 364 ± 8 µmol/L
[2]; Liver, 24 h p.i.
  % Dose per Total Tissue: 11.65 ± 0.97 % Dose
  Gd-Concentration: 746 ± 34 µmol/L
[2]; Lung, 10 min p.i.
  % Dose per Total Tissue: 1.69 ± 0.06 % Dose
  Gd-Concentration: 837 ± 32 µmol/L
[2]; Lung, 1 h p.i.
  % Dose per Total Tissue: 1.38 ± 0.08 % Dose
  Gd-Concentration: 658 ± 29 µmol/L
[2]; Lung, 24 h p.i.
  % Dose per Total Tissue: 0.73 ± 0.04 % Dose
  Gd-Concentration: 370 ± 34 µmol/L
[2]; [5]
  % Dose per Total Tissue: 10.11 ± 0.03 % Dose
  Gd-Concentration: 99 ± 5 µmol/L
[2]; [6]
  % Dose per Total Tissue: 0.09 ± 0.03 % Dose
  Gd-Concentration: 78 ± 1 µmol/L
[2]; [7]
  % Dose per Total Tissue: 0.04 ± 0.00 % Dose
  Gd-Concentration: 36 ± 1 µmol/L
[2]; Pancreas, 10 min p.i.
  % Dose per Total Tissue: 0.26 ± 0.05 % Dose
  Gd-Concentration: 229 ± 27 µmol/L
[2]; Pancreas, 1 h p.i.
  % Dose per Total Tissue: 0.21 ± 0.05 % Dose
  Gd-Concentration: 199 ± 30 µmol/L
[2]; Pancreas, 24 h p.i.
  % Dose per Total Tissue: 0.17 ± 0.02 % Dose
  Gd-Concentration: 130 ± 13 µmol/L
[2]; [8]
  % Dose per Total Tissue: 30.83 ± 4.05 % Dose
  Gd-Concentration: 225 ± 31 µmol/L
[2]; Spleen, 10 min p.i.
  % Dose per Total Tissue: 0.39 ± 0.03 % Dose
  Gd-Concentration: 548 ± 22 µmol/L
[2]; Spleen, 1 h p.i.
  % Dose per Total Tissue: 0.39 ± 0.02 % Dose
  Gd-Concentration: 487 ± 25 µmol/L
[2]; Spleen, 24 h p.i.
  % Dose per Total Tissue: 0.57 ± 0.03 % Dose
  Gd-Concentration: 645 ± 27 µmol/L
[2]; Stomach (emptied), 10 min p.i.
  % Dose per Total Tissue: 0.57 ± 0.04 % Dose
  Gd-Concentration: 231 ± 10 µmol/L
[2]; Stomach (emptied), 1 h p.i.
  % Dose per Total Tissue: 0.54 ± 0.12 % Dose
  Gd-Concentration: 219 ± 46 µmol/L
[2]; Stomach (emptied), 24 h p.i.
  % Dose per Total Tissue: 0.37 ± 0.06 % Dose
  Gd-Concentration: 138 ± 9 µmol/L
[2]; Sum of Organs (less the remainder of the body), 10 min p.i.
  % Dose per Total Tissue, Sum of Organs: 60.47 ± 3.68 % Dose
[2]; Sum of Organs (less the remainder of the body), 1 h p.i.
  % Dose per Total Tissue, Sum of Organs: 36.33 ± 2.51 % Dose
[2]; Sum of Organs, 24 h p.i.
  % Dose per Total Tissue, Sum of Organs: 52.01 ± 5.22 % Dose
[2]; Tumor, 10 min p.i.
  % Dose per Total Tissue: 0.28 ± 0.10 % Dose
  Gd-Concentration: 185 ± 36 µmol/L
[2]; Tumor, 1 h p.i.
  % Dose per Total Tissue: 0.21 ± 0.02 % Dose
  Gd-Concentration: 184 ± 13 µmol/L
[2]; Tumor, 24 h p.i.
  % Dose per Total Tissue: 0.31 ± 0.01 % Dose
  Gd-Concentration: 199 ± 19 µmol/L
[2]; Urine 0-24 h
  % Dose per Total Tissue: 20.20 ± 4.41 % Dose
  Gd-Concentration: 94 ± 20 µmol/L
[2]; [9]
  % Dose per Total Tissue: 0.11 ± 0.04 % Dose
  Gd-Concentration: 359 ± 72 µmol/L
[2]; [10]
  % Dose per Total Tissue: 0.24 ± 0.02 % Dose
  Gd-Concentration: 697 ± 42 µmol/L
[2]; [11]
  % Dose per Total Tissue: 0.32 ± 0.04 % Dose
  Gd-Concentration: 854 ± 135 µmol/L
[2]; [12]
  % Dose per Total Tissue: 0.10 ± 0.01 % Dose
  Gd-Concentration: 229 ± 15 µmol/L
[2]; [13]
  % Dose per Total Tissue: 0.20 ± 0.03 % Dose
  Gd-Concentration: 436 ± 44 µmol/L
[2]; [14]
  % Dose per Total Tissue: 0.18 ± 0.01 % Dose
  Gd-Concentration: 373 ± 24 µmol/L
[3]; 24 hours after administration
  MR signal in lymph node metastasis: considerable signal rise
  MR signal rise in healthy lymph node tissue: reduced
[3]; 24 hours p.i.
  MR enhancement of the primary tumor: enhancement also propagates out from the center of the tumor
[3]; early after administration, confirmed histologically
  MR signal in lymph node metastasis: without a signal rise
[3]; iliac lymph nodes, T1-weighted gradient-echo, 1.5 T, early after administration
  MR signal in healthy lymph node tissue: strong signal rise
[3]; immediately after administration, especially the periphery
  MR enhancement of the primary tumor: considerable enhancement
